Measurements as given in patent publication US20240180890A1, “VACCINE ADJUVANT” (Celleron Therapeutics Limited, priority 2021, published 2024).

Key:
[1] = test system: HDAC Class II; test: HDAC Class II inhibition; format: biochemical; settings: no activity against HDAC Class II
[2] = test system: peptide-specific CD8 T cells; test: Immunogenicity experiment with CXD101 and peptide vaccine; format: in vivo, C57BL/6 mice
Method: C57BL/6 mice were treated with orally administrated CXD101 at 10 mg/kg for 14 days (5 days on/2 days off) and intravenous D8V and 18V peptides vaccination (days 1 and 7) with respect to vehicle only control; n=5 per group; • B) 18V-peptide specific CD8 positive T cells with tetramers (i) and general T cell activation (CD8+ CD44+ CD62L− tetramer positive T cells) measurements by flow cytometry; n=5; • C) Representative examples of immunohistochemical staining of H3AcK9 in lungs (i) collected from C57BL/6 mice at 14 days treated with 25 mg/kg CXD101 and non-treated control. Original magnification: 20×, scale bar, 50 μm; and 63×; scale bar, 16 μm. n=3; (ii) results were quantified by ImageJ Fiji software and normalised optical density was presented as a mean+/−SD. […]
Twenty C57BL/6 female mice (5 mice per group: control; CXD101 treated; peptide vaccinated; CXD101/peptide vaccinated) where 10 mice were vaccinated intravenously with 30 μg of peptides encoding CD8 T cell epitopes from the beta-galactosidase gene, βgale96-103 (DAPIYTNV; D8V), the βgal497-504 (ICPMYARV; 18V) (Genscript) with 30 μg polylC (InVivogen) and 25 μg anti-CD40 (2bScientific). […] Mice were bled at day 6 and 13 post prime and the levels of peptide-specific CD8 T cells measured by detection with tetramers followed by flow cytometry.

[3] = physchem; settings: 25 °C, aqueous buffer

## Cc1nn(C)cc1CN1CCC(c2ccc(C(=O)Nc3ccccc3N)cc2)CC1 [CXD101/zabinostat, N-(2-aminophenyl)-4-(1-[(1,3-dimethyl-1H-pyrazol-4-yl)methyl]piperidin-4yl)benzamide]
[1]
  IC50: ≥ 2500 nM
[2]; C57BL/6 mice, oral CXD101, intravenous D8V and 18V peptides vaccination, tetramers and flow cytometry (FIG. 7)
  immunogenicity against a peptide-based vaccine: induces immunogenicity against a peptide-based vaccine
[2]; normal healthy cells and animals
  immune response to an immunogenic protein: potentiates the immune response
[3]
  solubility: ≥ 500 µg/mL
